{"source": "ChEMBL document CHEMBL1134908", "about": "“Synthesis of cholesterol-carborane conjugate for targeted drug delivery” (Bioorg Med Chem Lett, 2002)", "system": "Cancer cell lines", "test": "The cytotoxicity in liposomal formulation was determined on the SF-763 human glioma cancer cell line", "format": "functional, cell-based"}
{"substance": "Cholesteryl 1,12-dicarba-closo-dodecaborane-1-carboxylate (BCH)", "values": [{"measurement": "Viable cells", "value": 98.5, "unit": "%"}]}
